According to patent publication US6613883B1, “Screening assays for compounds that cause apoptosis and related compounds” (The United States of America as represented by the …, priority 1994, dated 2003):
“Also recorded” adds a separate entry of the source.

Legend:
binding of p53 to XPB = target: T1, binding of p53 to XPB (Homo sapiens, UniProt P04637); test: Competitive inhibition by peptides of XPB binding to GST-p53-WT; settings: peptide preincubated with GST-p53-WT 30 min on ice, 12-596 nM
T1 construct: was used for in vitro translation of full length XPB protein; made in house; host or cells: GST-p53-WT: Escherichia coli; XPB: cell-free in vitro transcription/translation (Promega)
Protocol: FIG. 4. Peptides corresponding to helicase motif III of XPB and the C-terminus of p53 prevent XPB from binding to GST-p53. Four different synthetic peptides were preincubated with 2 μg GST-p53WT for 30 minutes on ice before the addition of ^35S-labeled, in vitro-translated XPB for 60 min at RT. Peptide #464 corresponds to residues 464-478 of XPB (lanes 2-4; 12, 120, and 596 nM), peptide #479 corresponds to residues 479-493 of XPB (lanes 5-7; 12, 116, and 578 nM), peptide #99 corresponds to residues 100-115 of HBX (lanes 8-9; 111 and 554 nM), and peptide #p53cp corresponds to residues 367-387 of p53 (lanes 11-12; 85 and 424 nM).
(§1) The helicase motif III in XPB and the C-terminal region of p53 are both important regions that are involved in the binding of p53 to XPB. […] Incubation conditions for the binding assays and analysis of binding was then carried out as described in Example 2 herein.

[1] = system: normal primary human fibroblasts (C5RO); test: Apoptosis after microinjection of p53 expression vectors; type: cell-based; settings: for effect of coinjected mutant p53 on induction of apoptosis by wt p53: expression vectors for wt and mutant p53 coinjected into normal human fibroblasts; for % apoptotic cells: normal fibroblasts (C5RO), of p53 positive cells; for % apoptotic cells / p53 localization (% cells) both / p53 localization (% cells) cytoplasmic / p53 localization (% cells) nuclei: 24 hr after microinjection; for p53 localization (% cells) both / p53 localization (% cells) cytoplasmic / p53 localization (% cells) nuclei: normal fibroblasts
[2] = target: T2, XPD helicase within BTF2-TFIIH (Homo sapiens, UniProt P18074); test: BTF2-TFIIH helicase assay, 5'→3' (XPD); type: biochemical; settings: 6, 18, 120 ng wild-type p53 or 7, 21, 140 ng p53-273H
T2 construct: XPD and XPB helicase activity within the native BTF2-TFIIH complex; endogenous in cells; host or cells: HeLa cell nuclear extract (HAP fraction)

[3] = target: T3, XPB helicase within BTF2-TFIIH (Homo sapiens, UniProt P19447); test: BTF2-TFIIH helicase assay, 3'→5' (XPB); type: biochemical; settings: 6, 18, 120 ng wild-type p53 or 7, 21, 140 ng p53-273H
T3 construct: XPD and XPB helicase activity within the native BTF2-TFIIH complex; endogenous in cells; host or cells: HeLa cell nuclear extract (HAP fraction)

[4] = system: XPB binding to mutant p53; test: Peptide inhibition of XPB binding to mutant p53; design: species or system human; settings: data not shown
Protocol: as §1

wild type p53 = target: T4, wild type p53 (Homo sapiens, UniProt P04637); test: Binding of XPB proteins with deletion mutations to wild type p53; settings: for binding of in vitro-translated XPB deletion mutant to GST-p53-WT: compared with wild-type XPB
T4 construct: made in house; host or cells: Escherichia coli
Protocol: FIGS. 3A, 3B and 3C. p53 binds to XPB helicase motifs Ia, II and III. […] Twenty percent of the original input was loaded in parallel as the references (lanes 1-3). B. In vitro-translated wild-type p53 protein was mixed with GSH-beads loaded with 4 μg of GST (lane 2), 2 μg of GST-XPB (WT) (lane 3), or 2 μg of GST-XPB (truncated XPB with 80-480 residues) (lane 4). Bound proteins were analyzed on SDS/PAGE. The original input (100%) was included as a reference (lane 1). C. Schematic representation of the full-length or the truncated XPB proteins used in binding assays. Black boxes in the bars are the putative helicase motifs conserved across the helicase superfamily. The small open bar from residues 354 to 496 covers the region which binds p53, with the closed bar in the right side covering motif III representing the higher affinity binding site. Helicase motif 1, residues 337-351; motif Ia, residues 361-374; motif II, residues 434-446; motif III, residues 462-480; motif IV, residues 576-592; motif V, residues 601-621; motif VI, residues 630-649.
The binding assays were done in 500 μl IP buffer (50 mM Tris-HCl, pH8.0/120 mM NaCl/0.5% Nonidet P-40) containing the ^35S-labeled, in vitro translated proteins and GST fusion proteins loaded on GSH-beads at RT for 60 min. After washing five times with IP buffer, the bound proteins were released by boiling the beads in Laemmli buffer for 5 min, separated by SDS-PAGE, and visualized by fluolorography, as described in Wang, X. W., et al. (1994) Proc. Natl. Acad. Sci., USA 91:2230-2234.
XPB contains 7 putative helicase motifs (FIG. 3C, black bars) which are conserved among the helicase superfamily and are indispensable for NER activity. […] The XPB mutants were produced a s described in Example 1, herein, and the binding studies with wild type p53 were carried out as described in Example 2, herein.

99: non relevant peptide from HBV, residues 100-115 of HBX [compound 99, reference compound]
competition of in vitro-translated XPB from GST-p53 (binding of p53 to XPB): failed to do so; also recorded: enhance binding

249^Ser: p53 mutant 249Ser, microinjected as CMV expression vector
effect of coinjected mutant p53 on induction of apoptosis by wt p53 [1]: completely abolished | % apoptotic cells [1]: 0(34) % | p53 localization (% cells) both [1]: 17 % cells | p53 localization (% cells) cytoplasmic [1]: 77 % cells | p53 localization (% cells) nuclei [1]: 6 % cells

273^His: p53 mutated at codon 273 (Arg→His); expression vector or baculovirus-produced protein
inhibition of XPD helicase activity of BTF2-TFIIH [2]: No inhibition | inhibition of XPB helicase activity of BTF2-TFIIH [3]: No inhibition | effect of coinjected mutant p53 on induction of apoptosis by wt p53 [1]: completely abolished | % apoptotic cells [1]: 7(30) % | % apoptotic cells ([1]; listed as 273]^His): significantly reduced | p53 localization (% cells) both [1]: 73 % cells | p53 localization (% cells) cytoplasmic [1]: 0 % cells | p53 localization (% cells) nuclei [1]: 27 % cells

361 to 393: fragment of the c-terminus of wt p53, amino acid residues 361 to 393
induction of apoptosis by fragments of the c-terminus of wt p53 ([1]; cells and delivery not stated for the fragments): can also induce apoptosis

479: residues 479 to 493 of XPB (DLNFLIGPKLYEANW) [compound 479, reference compound]
competition of in vitro-translated XPB from GST-p53 (binding of p53 to XPB): failed to do so; also recorded: enhance binding

Peptide #464: amino acid residues 464 to 478 of XPB, helicase motif III region (LGLTATLVREDDKIV)
competition of in vitro-translated XPB from GST-p53 (binding of p53 to XPB; listed as #464): efficiently competed; also recorded: capable of inhibiting the binding | inhibition of XPB binding to mutant p53 [4]: did not inhibit

Peptide #p53cp: amino acid residues 367-387 of human wild type p53 (SHLKSKKGQSTSRHKKLMFKT)
competition of in vitro-translated XPB from GST-p53 (binding of p53 to XPB): competed; also recorded: capable of inhibiting the binding

B1: ΔC496: XPB deletion mutant terminating at residue 496 (helicase motifs IV, V and VI deleted) (protein)
chain: MGKRDRADRDKKKSRKRHYEDEEDDEEDAPGNDPQEAVPSAAGKQVDESGTKVDEYGAKDYRLQMPLKDDHTSRPLWVAPDGHIFLEAFSPVYKYAQDFLVAIAEPVCRPTHVHEYKLTAYSLYAAVSVGLQTSDITEYLRKLSKTGVPDGIMQFIKLCTVSYGKVKLVLKHNRYFVESCHPDVIQHLLQDPVIRECRLRNSEGEATELITETFTSKSAISKTAESSGGPSTSRVTDPQGKSDIPMDLFDFYEQMDKDEEEEEETQTVSFEVKQEMIEELQKRCIHLEYPLLAEYDFRNDSVNPDINIDLKPTAVLRPYQEKSLRKMFGNGRARSGVIVLPCGAGKSLVGVTAACTVRKRCLVLGNSAVSVEQWKAQFKMWSTIDDSQICRFTSDAKDKPIGCSVAISTYSMLGHTTKRSWEAERVMEWLKTQEWGLMILDEVHTIPAKMFRRVLTIVQAHCKLGLTATLVREDDKIVDLNFLIGPKLYEANWMEL
binding of in vitro-translated XPB deletion mutant to GST-p53-WT (wild type p53): did not alter the binding

B2: ΔC354: XPB deletion mutant terminating at residue 354 (helicase motifs Ia to VI deleted) (protein)
chain: MGKRDRADRDKKKSRKRHYEDEEDDEEDAPGNDPQEAVPSAAGKQVDESGTKVDEYGAKDYRLQMPLKDDHTSRPLWVAPDGHIFLEAFSPVYKYAQDFLVAIAEPVCRPTHVHEYKLTAYSLYAAVSVGLQTSDITEYLRKLSKTGVPDGIMQFIKLCTVSYGKVKLVLKHNRYFVESCHPDVIQHLLQDPVIRECRLRNSEGEATELITETFTSKSAISKTAESSGGPSTSRVTDPQGKSDIPMDLFDFYEQMDKDEEEEEETQTVSFEVKQEMIEELQKRCIHLEYPLLAEYDFRNDSVNPDINIDLKPTAVLRPYQEKSLRKMFGNGRARSGVIVLPCGAGKSLVGVTAA
binding of in vitro-translated XPB deletion mutant to GST-p53-WT (wild type p53): completely abolished the binding

B3: GST-XPB-80/480: GST fused to amino acids 80 to 480 of XPB (protein, UniProt P19447 80-480, looked up, fragment)
chain: PDGHIFLEAFSPVYKYAQDFLVAIAEPVCRPTHVHEYKLTAYSLYAAVSVGLQTSDITEYLRKLSKTGVPDGIMQFIKLCTVSYGKVKLVLKHNRYFVESCHPDVIQHLLQDPVIRECRLRNSEGEATELITETFTSKSAISKTAESSGGPSTSRVTDPQGKSDIPMDLFDFYEQMDKDEEEEEETQTVSFEVKQEMIEELQKRCIHLEYPLLAEYDFRNDSVNPDINIDLKPTAVLRPYQEKSLRKMFGNGRARSGVIVLPCGAGKSLVGVTAACTVRKRCLVLGNSAVSVEQWKAQFKMWSTIDDSQICRFTSDAKDKPIGCSVAISTYSMLGHTTKRSWEAERVMEWLKTQEWGLMILDEVHTIPAKMFRRVLTIVQAHCKLGLTATLVREDDKIVDL
modifications: GST fusion
notes: GST fused to amino acids 80 to 480 of XPB
binding of in vitro-translated human wild-type p53 to GST-XPB protein (wild type p53; GSH-beads loaded with GST-XPB protein): significantly less binding
